Values of other authors in patent US9023853B2, “Janus kinase 2 (JAK2) inhibitor for the treatment of lupus” (Cephalon, Inc., priority 2010, dated 2015).
Where two headings read alike, the source gives them in different places.

Conditions: cited from earlier work

Compound | effectiveness in rheumatoid arthritis (doses of 5-30 mg twice per day) | effectiveness in rheumatoid arthritis (doses of 4-10 mg once daily)
CC1CCN(C(=O)CC#N)CC1N(C)c1ncnc2[nH]ccc12 (stereo in doubt) [tasocitinib] | effective | –
CCS(=O)(=O)N1CC(CC#N)(n2cc(-c3ncnc4[nH]ccc34)cn2)C1 [INCB028050] | – | effective
